Experimental data taken from the NIST ThermoML archive (doi:10.1016/j.jct.2005.08.009).
Numbers after ± are expanded uncertainties.

How the values were obtained:
[1] = 101 kPa, Liquid
[2] = xn = mol fraction of the nth substance listed; conditions: 101 kPa, Liquid, x2 = 0

SMILES	mass density ([1]; 298.15 K) [kg/m3]	viscosity ([1]; 298.15 K) [mPa·s]	mass density ([1]; 303.15 K) [kg/m3]	viscosity ([1]; 303.15 K) [mPa·s]	mass density ([1]; 308.15 K) [kg/m3]	viscosity ([1]; 308.15 K) [mPa·s]	mass density ([1]; 313.15 K) [kg/m3]	viscosity ([1]; 313.15 K) [mPa·s]	mass density ([1]; 318.15 K) [kg/m3]	viscosity ([1]; 318.15 K) [mPa·s]	viscosity ([2]; 298.15 K) [mPa·s]	viscosity ([2]; 303.15 K) [mPa·s]	viscosity ([2]; 308.15 K) [mPa·s]	viscosity ([2]; 313.15 K) [mPa·s]	viscosity ([2]; 318.15 K) [mPa·s]
CC#N [acetonitrile]	776.69 ± 1.9	0.3417 ± 0.0053	771.89 ± 1.9	0.328 ± 0.0051	765.46 ± 2	0.3129 ± 0.0049	760.86 ± 2	0.3009 ± 0.0048	754.76 ± 2	0.2899 ± 0.0047	–	–	–	–	–
O [water] + CC#N	–	–	–	–	–	–	–	–	–	–	0.8901 ± 0.011	0.7973 ± 0.01	0.7193 ± 0.0093	0.653 ± 0.0086	0.5961 ± 0.008
